Measurements: US9750742B2, “Small molecular inhibitors of RAD51 recombinase and methods thereof” (Drexel University, priority 2011, dated 2017)

Key:
RAD51 = assay: Western blotting, RAD51 expression level; format: cell-based, human; details: B02 20 μM versus no treatment
Experimental: The pellets were washed three times with cold PBS and then resuspended in lysis buffer containing 50 mM HEPES, pH 7.5, 50 mM NaCl, 5 mM EDTA, 1% Triton X-100, 50 mM NaF, and 10 mM Na4P2O7, 1 mM PMSF, and proteinase inhibitor cocktail (Roche Applied Science) for 30 min at 4° C. The cell lysates were centrifuged at 16,000×g, for 15 min at 4° C., and then the supernatants were collected and protein concentrations were determined using the Bradford assay. Aliquots containing 50 Ξg of total protein were analyzed by 12% SDS-PAGE. […]
Then, both pCBASce-transfected and untransfected cells were trypsinized and resuspended in DMEM supplemented with 10% FBS, 100 units/ml penicillin and 100 μg/ml streptomycin. […] The supernatants were collected and protein concentrations were determined by the Bradford assay using bovine serum albumin (BSA) as a standard. […] Immunoblot signals were detected using Enhanced Chemiluminescence (ECL) reagent (Pierce). […]

[1] = tested on: RAD51 foci in 293 human embryonic kidney (HEK) cells; assay: RAD51 foci formation; format: cell-based
Experimental: 2×10^5 log phase HEK-GFP cells were seeded in 3.5-cm tissue culture plates on glass coverslips pretreated with 0.01% poly-L-lysine (Sigma) and grown overnight. […] Cells were then exposed to 0.5 Gy IR using a Primus Linear Accelerator (Siemens) at […], 3 Gy/min followed by a 2-h incubation at 37° C. Cells were washed with phosphate-buffered saline (PBS) (8.1 mM Na2HPO4, 1.47 mM KH2PO4, 138 mM NaCl and 2.7 mM KCl, pH 7.4), extracted with PBS containing 0.2% Triton X-100 and 1 mM phenylmethanesulfonylfluoride (PMSF) for 5 min at 4° C., and fixed with PBS supplemented with 3.0% formaldehyde and 2.0% sucrose for 10 min. Cells were permeabilized with PBS containing 0.5% Triton X-100 for 5 min and blocked with PBS containing 3% BSA and 0.05% Tween 20 for 30 min at 23° C. Cells were treated with the polyclonal rabbit RAD51 antibodies (1:500 dilution) (a gift from Dr. Golub, Yale University) in PBS containing 3% BSA and 0.05% Triton X-100 overnight at 4° C., and then with Alexa Fluor 488 donkey antirabbit IgG (H+L) antibodies (1:1000 dilution) (Invitrogen) for 1 h at 23° C. followed by a 5-min staining with 500 ng/ml 4′,6-diamidino-2-phenylindole (DAPI) in PBS containing 0.05% Tween 20. Samples were washed in PBS containing 0.05% Tween 20, mounted in VectaShield™ (Vector Laboratories), and sealed with nail polish. The fluorescence images were obtained using an Olympus IX70 inverted microscope and iVision-Mac™ software (BioVision).

I-SceI = assay: Western blotting, I-SceI expression level; format: cell-based; details: with or without B02
Experimental: Then, both pCBASce-transfected and untransfected cells were trypsinized and resuspended in DMEM supplemented with 10% FBS, 100 units/ml penicillin and 100 μg/ml streptomycin. The suspensions were centrifuged at 1000×g for 5 min at 4° C., the pellets were washed 3 times with cold PBS and then resuspended in lysate buffer containing 50 mM HEPES (pH 7.5), 50 mM NaCl, 5 mM EDTA, 1% Triton X-100, 50 mM NaF, and 10 mM Na4P2O7, 1 mM phenylmethylsulfonyl fluoride (PMSF) and proteinase inhibitor cocktail (Roche Applied Science) for 30 min at 4° C. The cell lysates were centrifuged at 16000×g, for 15 min at 4° C. The supernatants were collected and protein concentrations were determined by the Bradford assay using bovine serum albumin (BSA) as a standard. Equivalent amounts of proteins were loaded on 12% SDS-PAGE gels and after electrophoretic separation were transferred on a PVDF membrane (Osmonics, Inc). […] Immunoblot signals were detected using Enhanced Chemiluminescence (ECL) reagent (Pierce). […]

`O=c1c2ccccc2nc(/C=C/c2cccnc2)n1Cc1ccccc1` [Compound B02, (E)-3-benzyl-2-(2-(pyridin-3-yl)vinyl)quinazolin-4(3H)-one] was tested, and the “expression of RAD51” value (RAD51) was “comparable”, the “inhibition of IR-induced RAD51 foci formation, in words” value ([1]; B02 20 μM) was “inhibitory effect was smaller” and the “decrease of average number of RAD51 foci per nucleus” value ([1]; B02 50 μM) was 4.4 fold. The “decrease of fraction of cells with RAD51 foci” value ([1]; B02 50 μM) was 3.8 fold, the “fraction of cells with RAD51 foci (≧1 focus)” value ([1]; B02 50 μM, 0.5 Gy IR, without B02 72±10%) was 19±6% and the “average number of RAD51 foci per nucleus” value ([1]; B02 50 μM, without B02 53±11) was 12±4. For the same molecule, the “expression of I-SceI protein” value (I-SceI) was “did not affect”.
